Test results from patent US20230096766A1, “AMINO ACID HAVING FUNCTIONAL GROUP CAPABLE OF INTERMOLECULAR HYDROGEN BONDING, PEPTIDE COMPOUND CONTAINING SAME AND METHOD FOR PRODUCTION THEREOF” (Chugai Seiyaku Kabushiki Kaisha, priority 2018, published 2023).
*1 amine or outer side, *2 acyl side, *3 side chain or, on linkers, in order; H or OH if unused. Where a SMILES comes first, the peptide text is derived from it. Bridges are numbered along the chain shown (N, C = ends). [ ]: non-standard residue; d: D form. The star is where a group is joined. ξ: configuration not given here. hPhe(3-OMe,4-CONHMe) = CNC(=O)c1ccc(CC[C@H](N)C(=O)O)cc1OC; Phe(3-OMe,4-CONHMe) = CNC(=O)c1ccc(C[C@H](N)C(=O)O)cc1OC; Phe(4-COOH) = N[C@@H](Cc1ccc(C(=O)O)cc1)C(=O)O; NMePhe(3-Cl) = CN[C@@H](Cc1cccc(Cl)c1)C(=O)O; X12 = O=C([C@H](CCCC(O)C(F)(F)F)N[*:1])[*:2]; Ethyl(2-morpholino) = C1CN(CC*)CCO1; Propyl(2,2-Me2,3-OH) = CC(C)(CO)C*; NMeF = CN[C@@H](Cc1ccccc1)C(=O)O; NMeL = CN[C@@H](CC(C)C)C(=O)O; NMeV = CN[C@H](C(=O)O)C(C)C; NMeAbu = CC[C@H](NC)C(=O)O; NMeA = CN[C@@H](C)C(=O)O; Piperidide = C1CCN(*)CC1; X8 = C1COC[C@@H](C*)N1; NBuGly = CCCCNCC(=O)O; ξS = NC(CO)C(=O)O; N(OH)Me = CN(O)*; Sar = CNCC(=O)O; tBu = CC(C)(C)*

Experiment: in vitro
Conditions: human

CCCCN1CC(=O)N(C)[C@@H](CC(C)C)C(=O)N[C@H](C(=O)N2CCCCC2)CC(=O)N(C)[C@@H](C)C(=O)N[C@@H](COCC(C)(C)CO)C(=O)N(C)[C@@H](CC(C)C)C(=O)N(C)[C@@H](Cc2ccccc2)C(=O)N[C@@H](C(C)C)C(=O)N(C)[C@@H](Cc2ccccc2)C(=O)N(C)[C@@H](CC(C)C)C(=O)N[C@@H]([C@@H](C)O)C1=O [AP121] ([NMeA]S(Propyl(2,2-Me2,3-OH))[NMeL][NMeF]V[NMeF][NMeL]T[NBuGly][NMeL]D-Piperidide; lactam N-11)
Papp (Caco-2, Caco-2 (cm/sec)): 3.1 ×10⁻⁶ cm/s

CCCCN1CC(=O)N(C)[C@@H](CC(C)C)C(=O)N[C@@H](COC(C)(C)C)C(=O)N(C)[C@@H](Cc2ccccc2)C(=O)N(C)[C@@H](CC(C)C)C(=O)N[C@H](C(=O)N2CCCCC2)CC(=O)N[C@H](C(C)C)C(=O)N(C)[C@@H](C(C)C)C(=O)N[C@@H](Cc2ccc(C(=O)N(C)O)cc2)C(=O)N(C)[C@@H](CC(C)C)C(=O)N[C@@H]([C@@H](C)O)C1=O [AP248] ([dV][NMeV][Phe(4-COOH)](N(OH)Me)[NMeL]T[NBuGly][NMeL]S(tBu)[NMeF][NMeL]D-Piperidide; lactam N-11)
Papp (Caco-2, Caco-2 (cm/sec)): 0.24 ×10⁻⁶ cm/s

CCCCN1CC(=O)N(C)[C@@H](CC(C)C)C(=O)N(C)[C@@H](CC(C)C)C(=O)N[C@@H](COC(C)(C)C)C(=O)N(C)[C@@H](CC(C)C)C(=O)N[C@H](C(=O)N2CCCCC2)CC(=O)N(C)CC(=O)N(C)[C@@H](Cc2cccc(Cl)c2)C(=O)N[C@@H](Cc2ccc(C(=O)N(C)O)cc2)C(=O)N(C)[C@@H](CC(C)C)C(=O)N[C@@H]([C@@H](C)O)C1=O [AP254] ([Sar][NMePhe(3-Cl)][Phe(4-COOH)](N(OH)Me)[NMeL]T[NBuGly][NMeL][NMeL]S(tBu)[NMeL]D-Piperidide; lactam N-11)
Papp (Caco-2, Caco-2 (cm/sec)): 0.15 ×10⁻⁶ cm/s

CCCCN1CC(=O)N(C)[C@@H](CC(C)C)C(=O)N[C@@H](Cc2ccc(C(=O)NC)c(OC)c2)C(=O)N(C)[C@@H](CC(C)C)C(=O)N(C)[C@@H](CC(C)C)C(=O)N[C@H](C(=O)N2CCCCC2)CC(=O)N[C@H](CC(C)C)C(=O)N(C)[C@@H](Cc2ccccc2)C(=O)N[C@@H](C(C)C)C(=O)N(C)[C@@H](CC(C)C)C(=O)N[C@@H]([C@@H](C)O)C1=O [AP28] ([dL][NMeF]V[NMeL]T[NBuGly][NMeL][Phe(3-OMe,4-CONHMe)][NMeL][NMeL]D-Piperidide; lactam N-11)
Papp (Caco-2, Caco-2 (cm/sec)): 0.38 ×10⁻⁶ cm/s

CC[C@H]1C(=O)N[C@@H](COC(C)(C)C)C(=O)N(C)[C@@H](Cc2ccccc2)C(=O)N(C)[C@@H](CC(C)C)C(=O)N[C@H](C(=O)N2CCCCC2)CC(=O)N[C@H](CC(C)C)C(=O)N(C)[C@@H](Cc2ccccc2)C(=O)N[C@@H](CC(C)C)C(=O)N(C)[C@@H](CC)C(=O)N[C@@H](CCCC(O)C(F)(F)F)C(=O)N(C)CC(=O)N1C (stereo partly drawn) [Compound D10] ([dL][NMeF]L[NMeAbu][X12][Sar][NMeAbu]S(tBu)[NMeF][NMeL]D-Piperidide; lactam N-11)
Papp (Caco-2, Caco-2 (membrane permeability)): 0.81 ×10⁻⁶ cm/s

CCCCN1CC(=O)N(C)[C@@H](Cc2ccccc2)C(=O)N(C)[C@@H](CC(C)C)C(=O)N[C@@H](C(C)C)C(=O)N(C)[C@@H](CC(C)C)C(=O)N[C@H](C(=O)N2CCCCC2)CC(=O)N(C)CC(=O)N(C)[C@@H](CC(C)C)C(=O)NC(COCCN2CCOCC2)C(=O)N(C)[C@@H](CC(C)C)C(=O)N[C@@H]([C@@H](C)O)C1=O (stereo partly drawn) [pd484] ([Sar][NMeL][ξS](Ethyl(2-morpholino))[NMeL]T[NBuGly][NMeF][NMeL]V[NMeL]D-Piperidide; lactam N-11)
Papp (Caco-2, Caco-2): 1.8 ×10⁻⁶ cm/s

CCCCN1CC(=O)N(C)[C@@H](CC(C)C)C(=O)N[C@@H](COC[C@@H]2COCCN2)C(=O)N(C)[C@@H](CC(C)C)C(=O)N(C)[C@@H](CC(C)C)C(=O)N[C@H](C(=O)N2CCCCC2)CC(=O)N[C@H](C(C)C)C(=O)N(C)[C@@H](Cc2ccccc2)C(=O)N[C@@H](CC(C)C)C(=O)N(C)[C@@H](CC)C(=O)N[C@@H]([C@@H](C)O)C1=O [AP239] ([dV][NMeF]L[NMeAbu]T[NBuGly][NMeL]S(X8)[NMeL][NMeL]D-Piperidide; lactam N-11)
Papp (Caco-2, Caco-2 (cm/sec)): 0.18 ×10⁻⁶ cm/s

CC[C@H](C)[C@@H]1NC(=O)[C@H](CC(C)C)N(C)C(=O)[C@@H](C)NC(=O)C[C@@H](C(=O)N2CCCCC2)NC(=O)[C@H](C(C)C)N(C)C(=O)[C@H](Cc2ccccc2)N(C)C(=O)[C@H](COC(C)(C)C)NC(=O)[C@H](CC(C)C)N(C)C(=O)CN(C)C(=O)[C@H](Cc2ccc(O)cc2)NC(=O)[C@H](C)N(C)C1=O [pd117] ([dA][NMeL]I[NMeA]Y[Sar][NMeL]S(tBu)[NMeF][NMeV]D-Piperidide; lactam N-11)
Papp (Caco-2, Caco-2 (cm/sec)): 0.56 ×10⁻⁶ cm/s

CCCCN1CC(=O)N(C)[C@@H](CC(C)C)C(=O)N[C@@H](COC(C)(C)C)C(=O)N(C)[C@@H](CC(C)C)C(=O)N(C)[C@@H](CC)C(=O)N[C@H](C(=O)N2CCCCC2)CC(=O)N[C@H](CC(C)C)C(=O)N(C)[C@@H](Cc2ccccc2)C(=O)N[C@@H](CCc2ccc(C(=O)NC)c(OC)c2)C(=O)N(C)[C@@H](CC(C)C)C(=O)N[C@@H]([C@@H](C)O)C1=O [AP201] ([dL][NMeF][hPhe(3-OMe,4-CONHMe)][NMeL]T[NBuGly][NMeL]S(tBu)[NMeL][NMeAbu]D-Piperidide; lactam N-11)
Papp (Caco-2, Caco-2 (cm/sec)): 0.35 ×10⁻⁶ cm/s
